Laboratory results published in patent US7273896B2, “Compositions and methods of using a transient colorant” (Angiotech Pharmaceuticals (US), Inc., priority 2003, dated 2007).

Assay: Solubility of fluorescein in COH102 and COH206 buffer
Assay type: physicochemical
Settings: 0.1% in COH102 and COH206 buffer
Description: General Procedures. Transient colorants were subjected to irradiation or other sterilization methods to determine if they would be stable. Standard chemical mixing, measuring, and analytical methods were utilized. Solubilities for effective amounts of transient colorants mixed in starting materials (and in the final compositions) were verified by routine mixing followed by analytical procedures.
Fluorescein was tested at 0.1% in COH102 and COH206 buffer and found to be soluble. To test in COSEAL®, one-fifth volume of COH102 buffer was replaced with 0.1% to 1.0% fluorescein in COH102 buffer, and the PEGs, COH102, and COH206 were added and dissolved. The fluorescence was noted to go away upon dissolving the mixed PEGs, and the color changed to a light yellow. However, when the solution was sprayed with COH206 buffer to make the reaction product COSEAL®, the fluorescence returned. The final fluorescein concentration was 0.01% to 0.1% by weight of the final composition.

With `O=C1OC2(c3ccc(O)cc3Oc3cc(O)ccc32)c2ccccc21` [Fluorescein, fluorescein] the solubility was “soluble”.
